From patent publication US8916681B2, “Compound, use and method” (Medical Research Council, priority 2007, dated 2014)
Values joined by “and” are separate entries in the source; they are usually repeats but may differ in a detail not shown here. Identical values can stand only once. “Also recorded” adds a separate entry of the source. Like-named read-outs stand apart in the source and are kept apart here. Non-standard residues stand in square brackets, D forms with d. Residues, ends and D or L forms follow the SMILES beside them.

What was measured:
GPR54 = GPR54 (Homo sapiens, UniProt Q969F8); assay: Whole cell receptor binding assay, competition with 125I-labelled kisspeptin-10; design: expressed in transfected cells; host or cells: CHO, stably transfected; settings: competition with I125-labelled kisspeptin-10
Procedure: Whole Cell Receptor Binding Assay—Kisspeptin-10 and analogues were prepared at 1:1000 dilutions in HEPES modified Dulbecco's modified Eagle's medium (DMEM) supplemented with ^125I-labelled Kisspeptin to produce 100,000 counts per minute (cpm). Cell monolayers were placed on ice and exposed to 0.5 mls peptide (10 pM-1 uM); the cells were then incubated at 4° C. for 4 hr. After 4 hrs, cells were washed twice with ice cold Dulbecco's phosphate buffered saline (DPBS; with Calcium and Magnesium) and then 0.5 mls 0.1M Sodium Hydroxide (NaOH) were added to cells for 20 minutes, shaking to lyse cells. Lysates were transferred to plastic tubes and bound radioactivity counted on the gamma counter for 60 seconds.

[1] = system: HUVECs (Human Umbilical Vein Endothelial Cells); assay: Cell migration (wound healing) assay in HUVECs; assay type: cell-based
Procedure: Human Umbilical Vein Endothelial Cells (HUVECs) isolated from neonatal umbilical cord were used as they endogenously express gpr-54, which is though to be involved in cell migration in the placenta. Chinese hamster ovary (CHO) cells which stably express the human gpr-54 receptor were used as a model cell line for wound healing assays. […] Complete media was added along with 1 nM Kisspeptin-10 for HUVECs and 100 nM Kisspeptin-10 for CHO cells, the optimal concentrations to inhibit cell migration (wound healing) in each cell type, in the presence and absence of antagonist 233, 234, 273 and 276 for HUVECs and 234 for CHOs. […] Cells were photographed on the axiovert 2000 at 20× magnification in phase contrast (Hori et al., 2001. Metastin suppresses the motility and growth of CHO cells transfected with its receptor. Biochem Biophys Res Commun 286, 958-963; Stafford et al., 2002, Identification and characterization of mouse metastasis-suppressor KiSS1 and its G-protein-coupled receptor. Cancer Res 62, 5399-5404).

GnRH neurons = assay: GnRH neuron firing, targeted extracellular recordings in brain slices; assay type: cell-based, mouse; settings: for response of GnRH neuron firing to 1 nM kisspeptin-10 after pretreatment with peptide: 1, 10, 100 nM peptide
Procedure: Firing of GnRH neurons were recorded in brain slices from transgenic female mice in which GFP is genetically targeted to GnRH neurons (42). Mice were housed on a 14 h light, 10 h dark cycle, with lights off at 1630 h, and were maintained on Harlan 2916 rodent chow (Harlan) and water ad libitum. All procedures were approved by the Animal Care and Use Committee of University of Virginia and were conducted within the guidelines of the National Research Council's Guide for the Care and Use of Laboratory Animals. Adult female GnRH-GFP mice were ovariectomized under isoflurane (Abbott Laboratories) anesthesia. Postoperative analgesia was provided by a long-acting local anesthetic (0.25% bupivicaine; 7.5 μl/site; Abbott Laboratories). At the time of surgery, mice received Silastic (Dow Corning) capsules containing 0.625 μg estradiol in sesame oil. […] No more than four cells from a single animal were recorded, all in different slices.
Brain slices were prepared using previously described method (44). Briefly, all solutions were bubbled with a 95% O2/5% CO2 mixture throughout the experiments and for at least 15 min before exposure to the tissue. The brain was rapidly removed and placed in ice-cold, high-sucrose saline solution containing 250 mM sucrose, 3.5 mM KCl, 26 mM NaHCO3, 10 mM glucose, 1.25 mM Na2HPO4, 1.2 mM MgSO4, and 2.5 mM MgCl2. Coronal 300-μm brain slices were cut with a Vibratome 3000 (Technical Products, International, Inc., St. Louis, Mo.). Slices were incubated for 30 min at 30-32 C in a solution of 50% high-sucrose saline and 50% normal saline (NS) containing 135 mM NaCl, 3.5 mM KCl, 10 mM glucose, 1.3 mM Na2HPO4, 1.2 mM MgSO4, and 2.5 mM CaCl2 and then were transferred to a solution of 100% NS at room temperature and kept at least 30 min and no more than 6 h before recording.
Targeted extracellular recordings (also known as loose-patch) were used to study effects of kisspeptin-10 and peptide 234 on GnRH neuron firing activity (45). […] Although these events are not action potentials per se, they accurately reflect changes in the action potential firing rate. For simplicity, we have used the phrases firing rate, firing pattern, and/or firing activity to refer to these events.
Individual brain slices were placed in a recording chamber continuously superfused with oxygenated NS solution and kept at 29-31 C. Cells were visualized with an Olympus BX50WI upright fluorescent microscope with infrared differential interference contrast (Opelco). GnRH neurons were identified by brief illumination at 470 nm to visualize the GFP signal. Patch borosilicate pipettes (World Precision Instruments), which ranged from 1.5-3 ΩM were filled with normal HEPES-buffered solution containing 150 mM NaCl, 10 mM HEPES, 10 mM glucose, 2.5 mM CaCl2, 1.3 mM MgCl2, and 3.5 mM KCl. Pipettes were placed in contact with the GnRH neurons using an MP-285 micromanipulator (Sutter Instruments). Seal resistances ranged from 8 MΩ and either remained stable or increased during recording up to as high as 50 MΩ. Current traces were obtained using an EPC-8 amplifier (HEKA) with the PulseControl XOP (Instrutech) running in Igor Pro (Wavemetrics) on the G4 Macintosh computer (Apple Computer) to acquire data. A voltage-clamp mode with a pipette holding potential of 0 mV, filtering at 10 kHz, digitized with an ITC-18 acquisition interface (Instrutech) was used for the recordings.
Different doses (1 nM, 10 nM, 100 nM) of peptide 234 were used to examine its antagonistic action on kisspeptin-10 activation of gpr-54. Positive control cells were recorded for a 10-min stable baseline, and then treated with kisspeptin-10 for 5 min, followed by a 15-min washout. Experimental cells were recorded for a 5-min stable baseline in NS, followed by 10 min in peptide 234 (1, 10 or 100 nM), then 5 min in kisspeptin-10 plus the same dose of antagonist, followed by a wash in NS. […]

GPR54, sequence (Q969F8 whole entry): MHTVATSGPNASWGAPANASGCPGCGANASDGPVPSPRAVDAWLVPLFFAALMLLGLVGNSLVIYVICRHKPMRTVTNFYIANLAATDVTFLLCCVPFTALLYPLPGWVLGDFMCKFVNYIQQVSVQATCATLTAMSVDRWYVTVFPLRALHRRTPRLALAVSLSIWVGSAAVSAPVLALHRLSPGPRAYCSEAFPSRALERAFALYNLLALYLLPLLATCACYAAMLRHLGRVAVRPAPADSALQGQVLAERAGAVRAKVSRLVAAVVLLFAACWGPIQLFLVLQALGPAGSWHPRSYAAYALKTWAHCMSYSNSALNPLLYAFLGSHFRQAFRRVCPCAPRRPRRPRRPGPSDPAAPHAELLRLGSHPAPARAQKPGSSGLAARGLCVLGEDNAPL

| Kd (GPR54; read-out: binding affinity) | SMILES | Kd (GPR54; binding affinity) [nM] | inhibition of migration in to the wound ([1]; 1 nM) [%] | GnRH neuron firing activity (GnRH neurons; 1 nM agonist, listed as kisspeptin-10) | inhibition of migration by 1 nM Kisspeptin in the presence of peptide ([1]; 22 hrs) [%] | GnRH neuron firing activity, peptide alone (GnRH neurons; 1 nM, post) [Hz] | GnRH neuron firing activity, peptide alone (GnRH neurons; 1 nM, pre) [Hz] | GnRH neuron firing activity, peptide alone (GnRH neurons; 10 nM, post) [Hz] | GnRH neuron firing activity, peptide alone (GnRH neurons; 10 nM, pre) [Hz] | GnRH neuron firing activity, peptide alone (GnRH neurons; 100 nM, post) [Hz] | GnRH neuron firing activity, peptide alone (GnRH neurons; 100 nM, pre) [Hz] | effect of peptide alone on GnRH neuron firing activity (GnRH neurons; 1, 10, 100 nM) | response of GnRH neuron firing to 1 nM kisspeptin-10 after pretreatment with peptide (GnRH neurons) | response of GnRH neuron firing to 1 nM kisspeptin-10 after pretreatment with peptide (GnRH neurons; listed as peptide 234) |
| --- | --- | --- | --- | --- | --- | --- | --- | --- | --- | --- | --- | --- | --- | --- |
| – | CC(C)C[C@H](NC(=O)CNC(=O)[C@H](Cc1ccccc1)NC(=O)[C@H](CO)NC(=O)[C@H](CC(N)=O)NC(=O)[C@H](Cc1c[nH]c2ccccc12)NC(=O)[C@H](CC(N)=O)NC(=O)[C@@H](N)Cc1ccc(O)cc1)C(=O)N[C@@H](CCCNC(=N)N)C(=O)N[C@@H](Cc1ccccc1)C(N)=O [Kiss, reference compound] | 2 | 50 | significantly increased; also recorded: markedly increased | – | – | – | – | – | – | – | – | – | – |
| 2 nM and 2.7 nM | CC(=O)N[C@H](C)C(=O)N[C@@H](CC(N)=O)C(=O)N[C@@H](Cc1c[nH]c2ccccc12)C(=O)N[C@@H](CC(N)=O)C(=O)NCC(=O)N[C@@H](Cc1ccccc1)C(=O)NCC(=O)N[C@H](Cc1c[nH]c2ccccc12)C(=O)N[C@@H](CCCNC(=N)N)C(=O)N[C@@H](Cc1ccccc1)C(N)=O [Peptide 234] (Ac-[dA]NWNGFG[dW]RF-NH2) | – | – | – | 10 | 0.27±0.08 | 0.18±0.12 | 0.29±0.17 | 0.34±0.15 | 0.62±0.14 | 0.45±0.12 | no effect | block | significantly reduced; also recorded: blocked |
